Tests used:
human TLR7 = molecular target: T1, human TLR7 (Homo sapiens, UniProt Q9NYK1); experiment: HEK-Blue hTLR7 SEAP reporter gene inhibition assay; type: cell-based; conditions: hTLR7 HEK-Blue cells, TLR7 ligand Gardiquimod 10 µM, 20 hours, SEAP by Quanti-blue; class symbols; read-out: HEK-Blue hTLR7 IC50
T1 sequence (Q9NYK1 27-1049): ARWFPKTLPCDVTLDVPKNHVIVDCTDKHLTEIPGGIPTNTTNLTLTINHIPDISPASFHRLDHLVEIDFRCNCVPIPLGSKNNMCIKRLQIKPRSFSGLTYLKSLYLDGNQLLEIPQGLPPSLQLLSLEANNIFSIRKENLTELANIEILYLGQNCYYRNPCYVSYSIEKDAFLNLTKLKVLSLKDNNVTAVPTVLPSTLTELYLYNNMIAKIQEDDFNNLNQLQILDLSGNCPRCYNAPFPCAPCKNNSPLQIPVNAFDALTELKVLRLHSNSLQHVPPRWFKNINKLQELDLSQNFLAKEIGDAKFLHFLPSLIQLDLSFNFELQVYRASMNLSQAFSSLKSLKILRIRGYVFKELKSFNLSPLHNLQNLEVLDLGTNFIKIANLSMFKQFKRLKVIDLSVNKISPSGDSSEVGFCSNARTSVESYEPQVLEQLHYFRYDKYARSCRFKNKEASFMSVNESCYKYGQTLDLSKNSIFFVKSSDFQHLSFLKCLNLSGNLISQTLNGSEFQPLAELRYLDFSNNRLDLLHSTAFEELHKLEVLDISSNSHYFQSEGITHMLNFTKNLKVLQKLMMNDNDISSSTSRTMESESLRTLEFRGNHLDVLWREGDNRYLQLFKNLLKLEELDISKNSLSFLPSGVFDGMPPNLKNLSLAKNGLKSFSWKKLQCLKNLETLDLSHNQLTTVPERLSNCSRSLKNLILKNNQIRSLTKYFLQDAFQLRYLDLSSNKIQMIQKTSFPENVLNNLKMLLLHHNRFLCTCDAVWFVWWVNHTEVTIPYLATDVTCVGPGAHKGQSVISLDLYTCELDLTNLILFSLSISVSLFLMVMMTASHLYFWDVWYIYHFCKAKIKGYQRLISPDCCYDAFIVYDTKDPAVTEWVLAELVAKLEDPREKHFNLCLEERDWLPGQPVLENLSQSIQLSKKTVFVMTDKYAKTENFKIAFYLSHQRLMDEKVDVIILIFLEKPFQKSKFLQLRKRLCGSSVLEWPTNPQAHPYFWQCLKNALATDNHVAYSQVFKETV
Protocol: (§1) HEK-Blue cells with stable expression of human TLR7 or TLR8 were used in the evaluation of inhibitory activity of compounds in the present invention against TLR7 or TLR8, by using its ability to induce the SEAP reporting gene under the control of the fusion of IFN-β minimum promoters into five NF-κB and ap-1 binding sites, as follows: hTLR7 HEK-Blue cells (Invivogen, 80, 000 cells per well) or hTLR8 HEK-Blue cells (60, 000 cells per well) were added to a 96-well cell culture plate. A solution of the testing compounds were added to each well, with the final concentration of tested compounds in the medium ranged from 0.001 to 36 µM and the culture was incubated for 15 minutes. M5049 was used as positive controls in the testing.
(§2) Then a TLR7 ligand (Gardiquimod, purchased from MedChemExpress, with final concentration of ligand in cell culture medium kept at 10 µM) or a TLR8 ligand (purchased from MedChemExpress with final concentration in cell culture media at 10 µM) and the culture was incubated for 20 hours. According to the manufacturer's instructions, a HEK-Blue reagent Quanti-blue (Invivogen) was used to detect the SEAP levels in cell cultures. The half […] concentration or IC50 was calculated by using GraphPad Prism. […] Table 1: Activities of examples in this invention to hTLR7/8 in HEK-Blue Cells

human TLR8 = molecular target: T2, human TLR8 (Homo sapiens, UniProt Q9NR97); experiment: HEK-Blue hTLR8 SEAP reporter gene inhibition assay; type: cell-based; conditions: hTLR8 HEK-Blue cells, TLR8 ligand 10 µM, 20 hours, SEAP by Quanti-blue; class symbols; read-out: HEK-Blue hTLR8 IC50
T2 construct: expressed in transfected cells
T2 sequence (Q9NR97 27-1041): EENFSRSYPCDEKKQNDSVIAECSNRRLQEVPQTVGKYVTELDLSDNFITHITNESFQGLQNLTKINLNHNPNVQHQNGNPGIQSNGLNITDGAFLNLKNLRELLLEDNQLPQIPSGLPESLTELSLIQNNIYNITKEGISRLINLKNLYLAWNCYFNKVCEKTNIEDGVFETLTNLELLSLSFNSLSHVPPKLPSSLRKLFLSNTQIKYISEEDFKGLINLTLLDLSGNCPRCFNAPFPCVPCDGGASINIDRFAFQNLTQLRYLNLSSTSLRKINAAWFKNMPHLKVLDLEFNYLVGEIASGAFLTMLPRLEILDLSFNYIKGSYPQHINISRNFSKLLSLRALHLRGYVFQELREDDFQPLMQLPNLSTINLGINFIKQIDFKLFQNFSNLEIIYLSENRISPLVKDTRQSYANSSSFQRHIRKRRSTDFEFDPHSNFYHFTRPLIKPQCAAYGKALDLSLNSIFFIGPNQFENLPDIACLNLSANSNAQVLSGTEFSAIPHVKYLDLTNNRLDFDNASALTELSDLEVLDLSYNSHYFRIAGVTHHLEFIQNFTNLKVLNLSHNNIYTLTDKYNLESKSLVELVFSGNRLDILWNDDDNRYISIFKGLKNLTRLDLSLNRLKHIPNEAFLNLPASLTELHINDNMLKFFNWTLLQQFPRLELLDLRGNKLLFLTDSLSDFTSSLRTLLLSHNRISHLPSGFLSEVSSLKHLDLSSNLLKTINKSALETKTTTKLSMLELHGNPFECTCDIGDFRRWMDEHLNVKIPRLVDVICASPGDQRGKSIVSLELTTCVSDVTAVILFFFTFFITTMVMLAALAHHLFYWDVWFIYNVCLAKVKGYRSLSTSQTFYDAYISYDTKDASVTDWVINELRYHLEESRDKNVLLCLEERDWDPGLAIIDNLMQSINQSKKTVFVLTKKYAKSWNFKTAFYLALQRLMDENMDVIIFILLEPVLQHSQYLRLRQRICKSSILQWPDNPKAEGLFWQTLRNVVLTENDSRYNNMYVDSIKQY
Protocol: as §1, §2

Row | Compound | IC50 (human TLR7) | IC50 (human TLR8)
1 | 3-Fluoro-4-((4R,9S)-8-(2-((R)-3-fluoropyrrolidin-1-yl)-2-oxoethyl)-4,9-dimethyl-3,4,7,8,9,10-hexahydropyrido[3',4':3,4]pyrazolo[1,5-a]pyrazin-2(1H)-yl)pyrazolo[1,5-a]pyridine-7-carbonitrile [Example I-149] | < 50 nM | > 100 nM
2 | 3-Fluoro-4-((4R,9S)-8-(2-((S)-3-fluoropyrrolidin-1-yl)-2-oxoethyl)-4,9-dimethyl-3,4,7,8,9,10-hexahydropyrido[3',4':3,4]pyrazolo[1,5-a]pyrazin-2(1H)-yl)pyrazolo[1,5-a]pyridine-7-carbonitrile [Example I-153] | < 50 nM | > 100 nM
3 | 4-((4R,9S)-4,9-dimethyl-8-(2-(4-methylpiperazin-1-yl)-2-oxoethyl)-3,4,7,8,9,10-hexahydropyrido[3',4':3,4]pyrazolo[1,5-a]pyrazin-2(1H)-yl)-3-fluoropyrazolo[1,5-a]pyridine-7-carbonitrile [Example I-128] | < 50 nM | < 100 nM
4 | 4-((4R,9S)-8-(D-prolyl)-4,9-dimethyl-3,4,7,8,9,10-hexahydropyrido [3',4':3,4] pyrazolo [1,5-a]pyrazin-2(1H)-yl)-3-fluoropyrazolo[1,5-a]pyridine-7-carbonitrile [Example I-120] | > 50 nM | < 100 nM
5 | 4-((4R,9S)-8-(cyanomethyl)-4,9-dimethyl-3,4,7,8,9,10-hexahydropyrido[3',4':3,4] pyrazolo[1,5-a]pyrazin-2(1H)-yl)-3-fluoropyrazolo[1,5-a]pyridine-7-carbonitrile [Example I-124] | < 50 nM | < 100 nM
6 | C[C@@H]1CN(c2ccc(C#N)n3ncc(F)c23)Cc2c3c(nn21)CC(C)(N)CC3 (single isomer, unassigned) [Example I-71b] | > 50 nM | < 100 nM
7 | C[C@@H]1CN(c2ccc(C#N)n3ncc(F)c23)Cc2c3c(nn21)CCC(C)(N)C3 (single isomer, unassigned) [Example I-80a] | > 50 nM | > 100 nM
8 | C[C@@H]1CN(c2ccc(C#N)n3ncc(F)c23)Cc2c3c(nn21)CCC(C)(N)C3 (single isomer, unassigned) [Example I-80b] | > 50 nM | > 100 nM
9 | C[C@@H]1CN(c2ccc(C#N)n3ncc(F)c23)Cc2c3c(nn21)[C@@H](C)NCC3 [Example I-21, 4-((4R,7R)-4,7-dimethyl-3,4,7,8,9,10-hexahydropyrido[3',4':3,4]pyrazolo[1,5-a]pyrazin-2(1H)-yl)-3-fluoropyrazolo[1,5-a]pyridine-7-carbonitrile] | < 50 nM | < 100 nM
10 | C[C@@H]1CN(c2ccc(C#N)n3ncc(F)c23)Cc2c3c(nn21)CC(N(C)C)CC3 (stereo partly drawn) [Example I-27, 4-((4R)-8-(dimethylamino)-4-methyl-3,4,7,8,9,10-hexahydropyrazino[1,2-b]indazol-2(1H)-yl)-3-fluoropyrazolo[1,5-a]pyridine-7-carbonitrile] | > 50 nM | < 100 nM

Now from value to compound:

Row | IC50 (human TLR7) | IC50 (human TLR8) | Compound
11 | < 50 nM | < 100 nM | CC1Cc2nn3c(c2CN1)CN(c1ccc(C#N)n2ncc(F)c12)C[C@H]3C (single isomer, unassigned) [Example I-11a]
12 | < 50 nM | < 100 nM | CC1Cc2nn3c(c2CN1)CN(c1ccc(C#N)n2ncc(F)c12)C[C@H]3C (single isomer, unassigned) [Example I-11b]
13 | < 50 nM | < 100 nM | C[C@@H]1CN(c2ccc(C#N)n3ncc(F)c23)Cc2c3c(nn21)CC(N)CC3 (single isomer, unassigned) [Example I-20a]
14 | < 50 nM | < 100 nM | C[C@@H]1CN(c2ccc(C#N)n3ncc(F)c23)Cc2c3c(nn21)CC(N)CC3 (single isomer, unassigned) [Example I-20b]
15 | < 50 nM | < 100 nM | CC1Cc2c(nn3c2CN(c2ccc(C#N)n4ncc(F)c24)C[C@H]3C)C(C)N1 (single isomer, unassigned) [Example I-59b]
16 | < 50 nM | < 100 nM | C[C@@H]1CN(c2ccc(C#N)n3ncc(F)c23)Cc2c3c(nn21)CC(C)(N)CC3 (single isomer, unassigned) [Example I-71a]
17 | < 50 nM | < 100 nM | CC1Cc2c(nn3c2CN(c2ccc(C#N)n4ncc(F)c24)C[C@H]3C)C(C)N1 (single isomer, unassigned) [Example I-88a]
18 | < 50 nM | > 100 nM | CC1Cc2c(nn3c2CN(c2ccc(C#N)n4ncc(F)c24)C[C@H]3C)C(C)N1 (single isomer, unassigned) [Example I-88b]
19 | < 50 nM | < 100 nM | C[C@@H]1CN(c2ccc(C#N)n3ncc(F)c23)Cc2c3c(nn21)CCNC3 [Example I-2, (R)-3-fluoro-4-(7-methyl-1,3,4,7,8,10-hexahydropyrido[4',3':3,4]pyrazolo[1,5-a]pyrazin-9(2H)-yl)pyrazolo[1,5-a]pyridine-7-carbonitrile]
20 | < 50 nM | < 100 nM | C[C@@H]1CN(c2ccc(C#N)n3ncc(F)c23)Cc2c3c(nn21)CNCC3 [Example I-5, (R)-3-fluoro-4-(4-methyl-3,4,7,8,9,10-hexahydropyrido[3',4':3,4]pyrazolo[1,5-a]pyrazin-2(1H)-yl)pyrazolo[1,5-a]pyridine-7-carbonitrile]
21 | < 50 nM | < 100 nM | CC1Cc2nn3c(c2CN1)CN(c1ccc(C#N)n2ncc(F)c12)C[C@H]3C (stereo partly drawn) [Example I-11, 4-((7R)-3,7-dimethyl-1,3,4,7,8,10-hexahydropyrido[4',3':3,4]pyrazolo[1,5-a]pyrazin-9(2H)-yl)-3-fluoropyrazolo[1,5-a]pyridine-7-carbonitrile]
22 | < 50 nM | < 100 nM | CC1CNCc2c1nn1c2CN(c2ccc(C#N)n3ncc(F)c23)C[C@H]1C (stereo partly drawn) [Example I-12, 4-((7R)-4,7-dimethyl-1,3,4,7,8,10-hexahydropyrido[4',3':3,4]pyrazolo[1,5-a]pyrazin-9(2H)-yl)-3-fluoropyrazolo[1,5-a]pyridine-7-carbonitrile]

From patent publication EP4644396A1 (Visionpharma (Nantong) Co., Ltd, priority 2022, dated 2024)
